Reference: patent publication US8110217B2, “Sphingomyelin liposomes for the treatment of hyperactive bladder disorders” (priority 2001, dated 2012)
Entries after “also recorded” stand apart in the source; their conditions may differ.

Tested on: hyperactive bladder (PS/KCl)
Assay: Continuous CMG, hyperactive bladder induced by PS/KCl (Examples 5-6)
Assay type: in vivo, female Sprague-Dawley rats
Conditions: for Amplitude / Compliance / ICI / PT: N=6
Procedure: This was followed by instillation of liposomes (LP) in saline (in the case of the former) or LP/KCl.
Intravesical bladder pressure was recorded via a transurethral catheter in adult female Sprague-Dawley rats anesthetized with urethane (1.2 g/kg) administered by subcutaneous injection (sc). Some animals were pretreated with capsaicin (125 mg/kg, sc) four days prior to the experiments. […] Parameters measured included intercontraction interval (ICI), amplitude of bladder contractions, compliance and micturition pressure threshold (PT).
Animal Preparation. Thirty-four female Sprague-Dawley rats (250-300 g) were used in this study. Animals were anesthetized with urethane (1.2 g/kg, sc). Body temperature was maintained in the physiological range using a heating lamp.
Cystometrogram (CMG). A transurethral bladder catheter (PE-50) was connected via a three-way stopcock to a pressure transducer and to a syringe pump. This was used to record intravesical pressure and to infuse solutions into the bladder. A control CMG was performed by slowly filling the bladder with saline (0.04 ml/min) to elicit repetitive voiding. The parameters recorded were amplitude, PT, compliance, and ICI of reflex bladder contractions. Measurements in each animal represented the average of 3 to 5 bladder contractions.
Induction of a Hyperactive Bladder. […] L. Cheng et al., 1993, Am. J. Physiol. 265:R132-138). The experimental design is illustrated in FIG. 7. The KCl concentration used was within the range of concentrations present in normal rat urine (M. Ohnishi et al., 2001, Toxicol. Appl. Pharmacol. 174:122-129).
Preparation of Liposomes (LP). LP were prepared as described by Kirby and Gregoriadis (C. J. Kirby and G. Gregoriadia, 1984, “A simple procedure for preparing liposomes capable of high encapsulation efficiency under mild conditions,” Liposome Technology; G. Gregnoriadis, Ed., C.R.C. Press, Inc., Boca Raton, Fla., Vol. 1, p. 20). Briefly, LP were constructed as a 2:1 molar ratio of L-α-phosphatidylcholine and cholesterol (Sigma Chemical Co., St. Louis, Mo.) to a final lipid concentration of 2 mg/ml in saline. Lipids in chloroform were dried down together in the proper ratio under nitrogen. The residues were reconstituted as LP in saline or 500 mM KCl by intense sonication.
Statistical Analyis. Statistical analyses were performed using Student's t test for paired or unpaired data, where applicable. A p-value less than 0.05 was considered significant. All data are expressed in Example 2 (below) as means±S.E.

[1] = Table 1B series: saline, KCl 500 mM 1 h, PS/KCl 1 h, LP/KCl 2 h
[2] = Table 1C series: saline, KCl 500 mM 1 h, PS/KCl 1 h
[3] = Table 1C: KCl infusion 2 h after PS/KCl
[4] = infusion after PS/KCl, vs pretreatment

`[Cl-].[K+]` [KCl] was tested, and the “PT change” value (PS/KCl series, vs pretreatment) was “significantly increased”, the Amplitude [1] was 28.8 ± 1.2 cm H2O and the Compliance [1] was 0.284±0.028 ml/cm H2O. It also gave an ICI [1] of 15.8 ± 1.4 min, a PT [1] of 8.2 ± 0.9 cm H2O and an Amplitude [2] of 28.8 ± 2.2 cm H2O. The Compliance [2] was 0.226±0.050 ml/cm H2O, the ICI [2] was 16.3 ± 1.5 min and the PT [2] was 6.8 ± 0.6 cm H2O. For the same molecule, the Amplitude [3] was 33.0 ± 2.3 cm H2O, the Compliance [3] was 0.043±0.014 ml/cm H2O and the ICI [3] was 2.9 ± 0.5 min. The PT [3] was 11.8 ± 1.6 cm H2O, the “change of ICI / CMGs” value (infused alone: PS 10 mg/ml or KCl 500 mM) was “not changed; also recorded: did not significantly change the CMGs” and the “Compliance change” value [4] was “further reduced”. The “ICI change” value [4] was “not significantly changed; also recorded: did not alter the ICI for periods as long as 120 min”.
